Among the data in ChEMBL document CHEMBL3351779, “New tetracyclic tacrine analogs containing pyrano[2,3-c]pyrazole: efficient synthesis, biological assessment and docking simulation study” (Eur J Med Chem, 2015) are viability, IC50 and Ki values, retold here.

Some results are limits rather than exact numbers.

Test [1] can be described thus: Neuroprotective activity against H2O2-induced cell death in rat PC12 cells assessed as cell viability at 10 uM after 24 hrs by MTT assay relative to control. In kind it is functional. To be noted: PC-12, 24 h, read-out: Activity. In general terms: Formazan colour is commonly taken as a measure of viable cells.
Test [2] addresses T1, Acetylcholinesterase (Electrophorus electricus, UniProt O42275).
Description: Inhibition of electric eel AChE using acetylthiocholine iodide as substrate preincubated for 10 mins followed by substrate addition by Ellman's method
For test [3], the target named is Cholinesterase (Equus caballus, UniProt P81908).
Sequence of Cholinesterase (P81908 whole entry): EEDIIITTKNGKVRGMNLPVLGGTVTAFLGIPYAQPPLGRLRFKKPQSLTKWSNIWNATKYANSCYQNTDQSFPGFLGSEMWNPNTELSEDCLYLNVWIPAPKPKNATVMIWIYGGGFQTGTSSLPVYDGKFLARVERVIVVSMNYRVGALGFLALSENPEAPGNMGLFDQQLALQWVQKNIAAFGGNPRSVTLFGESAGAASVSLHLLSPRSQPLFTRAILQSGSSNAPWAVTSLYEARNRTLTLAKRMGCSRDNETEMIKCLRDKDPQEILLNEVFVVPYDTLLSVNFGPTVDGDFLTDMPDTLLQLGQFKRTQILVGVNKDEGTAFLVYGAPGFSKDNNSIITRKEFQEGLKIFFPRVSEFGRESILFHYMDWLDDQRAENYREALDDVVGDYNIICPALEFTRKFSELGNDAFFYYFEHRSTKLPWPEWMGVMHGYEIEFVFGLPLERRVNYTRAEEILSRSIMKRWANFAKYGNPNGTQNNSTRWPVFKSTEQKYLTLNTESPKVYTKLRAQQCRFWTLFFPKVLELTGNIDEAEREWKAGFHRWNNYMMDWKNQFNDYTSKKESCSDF
Description: Inhibition of equine serum BuChE using butylthiocholine iodide as substrate preincubated for 10 mins followed by substrate addition by Ellman's method
Test [4] concerns the target T1, Acetylcholinesterase. The test can be described thus: Inhibition of electric eel AChE by Lineweaver-Burk plot.

T1 sequence (O42275 whole entry): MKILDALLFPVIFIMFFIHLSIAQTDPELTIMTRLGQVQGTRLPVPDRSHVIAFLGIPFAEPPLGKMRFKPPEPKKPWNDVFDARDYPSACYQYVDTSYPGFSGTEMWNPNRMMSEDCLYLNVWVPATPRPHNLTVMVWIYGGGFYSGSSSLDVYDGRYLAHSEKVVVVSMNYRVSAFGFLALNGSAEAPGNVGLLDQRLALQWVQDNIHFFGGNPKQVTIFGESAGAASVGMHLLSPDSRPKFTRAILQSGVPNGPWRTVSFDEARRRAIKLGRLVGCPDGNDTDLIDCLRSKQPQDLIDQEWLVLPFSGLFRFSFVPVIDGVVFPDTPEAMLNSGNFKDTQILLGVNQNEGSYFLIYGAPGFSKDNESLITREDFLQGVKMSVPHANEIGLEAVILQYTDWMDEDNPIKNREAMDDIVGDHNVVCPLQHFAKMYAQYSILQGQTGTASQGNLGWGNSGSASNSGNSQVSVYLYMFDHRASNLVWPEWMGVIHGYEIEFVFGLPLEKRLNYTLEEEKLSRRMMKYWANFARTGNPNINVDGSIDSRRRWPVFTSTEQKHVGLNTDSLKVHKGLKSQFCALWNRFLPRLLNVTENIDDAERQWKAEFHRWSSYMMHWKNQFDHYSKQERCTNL

In the case of `O=c1c(O)c(-c2ccc(O)c(O)c2)oc2cc(O)cc(O)c12` [QUERCETIN], the viability at 10 µM in test [1] was 51.6%.

As to `COc1ccc(C2c3c(n[nH]c3C)Oc3nc4c(c(N)c32)CCCC4)cc1OC` (racemic), the concentration for half-maximal inhibition (IC50) (as a rule, the concentration needed to halve the response being measured) in test [2] was 190 nM; in test [3], greater than 100 µM. Further, the Ki (as a rule, the dissociation constant of the complex between target and ligand, obtained from inhibition or displacement) in test [4] stood at 490 nM. The viability at 10 µM in test [1] amounted to 48.4%.

As to `COc1ccccc1C1c2c(n[nH]c2C)Oc2nc3c(c(N)c21)CCCC3` (racemic), the IC50 in test [2] is greater than 10000 nM; in test [3], greater than 100 µM.

As for `COc1ccc(OC)c(C2c3c(n[nH]c3C)Oc3nc4c(c(N)c32)CCCC4)c1` (racemic), the IC50 is 500 nM in test [2] and greater than 100 µM in test [3].

On to `Cc1[nH]nc2c1C(c1cccc(Cl)c1Cl)c1c(nc3c(c1N)CCCC3)O2` (racemic), for which the 50% inhibitory concentration (IC50) in test [2] is 870 nM; in test [3] it was greater than 100 µM.

`COc1cc(C2c3c(n[nH]c3C)Oc3nc4c(c(N)c32)CCCC4)cc(OC)c1OC` (racemic): the IC50 in test [2] was 2180 nM; in test [3] it was greater than 100 µM.

`Cc1[nH]nc2c1C(c1ccc(F)cc1)c1c(nc3c(c1N)CCCC3)O2` (racemic): the IC50 in test [2] stood at 810 nM; in test [3], 25 µM.

In the case of `Cc1[nH]nc2c1C(c1cccc3ccccc13)c1c(nc3c(c1N)CCCC3)O2` (racemic), the IC50 in test [2] stood at 320 nM; in test [3], 15 µM.

On to `COc1ccc(C2c3c(n[nH]c3C)Oc3nc4c(c(N)c32)CCCC4)cc1` (racemic), for which the IC50 is 310 nM in test [2] and greater than 100 µM in test [3].

For the compound `Cc1ccc(C2c3c(n[nH]c3C)Oc3nc4c(c(N)c32)CCCC4)cc1` (racemic), the IC50 in test [2] is 750 nM; in test [3], 4.5 µM.

As to `Cc1[nH]nc2c1C(c1ccccc1F)c1c(nc3c(c1N)CCCC3)O2` (racemic), the IC50 in test [2] is 590 nM; in test [3], 33 µM.

As for `Cc1[nH]nc2c1C(c1cccc([N+](=O)[O-])c1)c1c(nc3c(c1N)CCCC3)O2` (racemic), the IC50 was 3270 nM in test [2] and greater than 100 µM in test [3].

On to `Cc1[nH]nc2c1C(c1cccs1)c1c(nc3c(c1N)CCCC3)O2` (racemic), for which the results for the IC50 in test [2] and in test [3] were 720 nM and 16 µM, respectively.
